Data published in patent US20120077851A1, “Urea Derivatives as Kinase Inhibitors” (MEDOLUTION LIMITED, priority 2009, published 2012).

Experiment: Pharmacokinetics of Compound A and Regorafenib in rats
Assay type: in vivo
Conditions: compared to Regorafenib

With `[2H]C([2H])([2H])NC(=O)c1cc(Oc2ccc(NC(=O)Nc3ccc(Cl)c(C(F)(F)F)c3)c(F)c2)ccn1` [Compound A, 4-(4-(3-(4-chloro-3-(trifluoromethyl)phenyl)ureido)-3-fluorophenoxy)-N-d3-methylpicolinamide] the T1/2 was “prolonged T1/2”, the clearance was “significant slower clearance” and the pharmacokinetic profile (FIG. 1, rats) was “better pharmacokinetic profile”. For the same compound, the exposure (oral administration route at equal dose) was “improved exposure”.
